Source: ChEMBL document CHEMBL1641538, “Synthesis of a novel human PPARδ selective agonist and its stimulatory effect on oligodendrocyte differentiation” (Bioorg Med Chem Lett, 2011)
The source made the active and inactive calls. The calls are words filed in the database; no cut-off is given here.

Experiments:
[1] = target: T1, Peroxisome proliferator-activated receptor alpha (Homo sapiens, UniProt Q07869); assay: Transactivation of Gal4-fused human PPARalpha DNA binding domain expressed in african green monkey CV1 cells by luciferase reporter gene assay; type: cell-based, CV-1
T1 sequence (Q07869 whole entry): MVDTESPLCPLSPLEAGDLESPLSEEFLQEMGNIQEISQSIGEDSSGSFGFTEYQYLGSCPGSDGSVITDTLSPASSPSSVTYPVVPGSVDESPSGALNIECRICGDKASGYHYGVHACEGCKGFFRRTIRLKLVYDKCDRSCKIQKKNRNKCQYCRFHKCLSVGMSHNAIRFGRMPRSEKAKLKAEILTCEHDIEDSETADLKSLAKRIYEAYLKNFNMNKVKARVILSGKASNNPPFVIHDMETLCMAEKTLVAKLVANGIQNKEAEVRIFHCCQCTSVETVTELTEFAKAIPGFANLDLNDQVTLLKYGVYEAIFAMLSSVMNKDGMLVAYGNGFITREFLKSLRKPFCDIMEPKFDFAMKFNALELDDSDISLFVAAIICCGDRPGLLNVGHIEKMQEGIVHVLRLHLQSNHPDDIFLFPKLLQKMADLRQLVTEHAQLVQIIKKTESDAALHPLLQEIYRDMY

[2] = target: T2, Peroxisome proliferator-activated receptor gamma (Homo sapiens, UniProt P37231); type: cell-based, CV-1
T2 sequence (P37231 whole entry): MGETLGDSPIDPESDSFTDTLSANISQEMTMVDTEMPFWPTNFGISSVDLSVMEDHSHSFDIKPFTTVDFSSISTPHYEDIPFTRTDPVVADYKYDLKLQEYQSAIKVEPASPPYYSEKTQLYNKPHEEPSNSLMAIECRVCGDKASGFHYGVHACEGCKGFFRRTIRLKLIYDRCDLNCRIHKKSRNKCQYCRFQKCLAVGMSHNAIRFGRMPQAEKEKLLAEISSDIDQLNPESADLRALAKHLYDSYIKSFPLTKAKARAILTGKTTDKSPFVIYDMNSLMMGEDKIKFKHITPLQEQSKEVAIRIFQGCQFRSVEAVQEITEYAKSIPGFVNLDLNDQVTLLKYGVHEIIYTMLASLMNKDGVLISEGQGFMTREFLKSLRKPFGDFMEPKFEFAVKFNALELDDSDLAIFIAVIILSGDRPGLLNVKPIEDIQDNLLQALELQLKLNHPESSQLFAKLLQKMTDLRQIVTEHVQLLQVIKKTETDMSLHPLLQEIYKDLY

[3] = target: T1, Peroxisome proliferator-activated receptor alpha; assay: Transactivation of full length human PPARalpha expressed in african green monkey CV1 cells by luciferase reporter gene assay; type: cell-based, CV-1
[4] = target: T2, Peroxisome proliferator-activated receptor gamma; assay: Transactivation of full length human PPARgamma expressed in african green monkey CV1 cells by luciferase reporter gene assay; type: cell-based, CV-1
[5] = target: T3, Peroxisome proliferator-activated receptor delta (Homo sapiens, UniProt Q03181); assay: Transactivation of full length human PPARdelta expressed in african green monkey CV1 cells by luciferase reporter gene assay; type: cell-based, CV-1
T3 sequence (Q03181 whole entry): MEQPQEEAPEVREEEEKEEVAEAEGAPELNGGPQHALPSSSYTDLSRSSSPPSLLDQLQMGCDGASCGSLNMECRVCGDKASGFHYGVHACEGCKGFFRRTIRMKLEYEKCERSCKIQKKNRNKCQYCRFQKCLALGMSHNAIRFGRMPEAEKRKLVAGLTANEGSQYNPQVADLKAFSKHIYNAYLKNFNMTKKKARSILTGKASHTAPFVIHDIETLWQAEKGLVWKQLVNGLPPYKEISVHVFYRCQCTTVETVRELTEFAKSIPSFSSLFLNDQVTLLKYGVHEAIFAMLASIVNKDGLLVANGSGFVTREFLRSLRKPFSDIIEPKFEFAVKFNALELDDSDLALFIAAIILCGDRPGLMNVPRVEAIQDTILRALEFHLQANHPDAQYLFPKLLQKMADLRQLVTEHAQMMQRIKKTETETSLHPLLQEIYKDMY

[6] = species: Homo sapiens; assay: Selectivity ratio of EC50 for full length human PPARalpha to EC50 for full length human PPARdelta
[7] = target: PPAR delta/gamma (Homo sapiens) (UniProt P37231+Q03181); assay: Selectivity ratio of EC50 for full length human PPARgamma to EC50 for full length human PPARdelta
[8] = species: Rattus norvegicus; assay: Induction of Wistar rat oligodendrocyte differentiation at 0.1 uM after 3 days by O1 antibody staining; type: functional
[9] = target: T3, Peroxisome proliferator-activated receptor delta; assay: Transactivation of Gal4-fused human PPARdelta DNA binding domain expressed in african green monkey CV1 cells by luciferase reporter gene assay; type: cell-based, CV-1

Structure (SMILES)	EC50 [1] [µM]	EC50 [2] [µM]	EC50 [3] [µM]	EC50 [4] [µM]	EC50 [5] [µM]	Ratio EC50 [6]	Ratio EC50 [7]	Activity [8]	EC50 [9] [µM]
Cc1cc2c(CCc3nc(-c4ccc(Cl)cc4Cl)oc3C(C)C)noc2cc1OCC(=O)O	> 10	> 10	> 10	> 10	0.0045	2000	2000	Active	–
Cc1nc(-c2ccc(C(F)(F)F)cc2)sc1C(=O)NCc1ccc(OC(C)(C)C(=O)O)cc1 [GW590735]	–	> 10	–	–	–	–	–	–	2.6
